Measurements as given in patent publication US20240099304A1, “SYNERGISTIC HERBICIDAL COMPOSITIONS OF METAMIFOP” (Parijat Industries (India) Private Limited, priority 2021, published 2024).

Legend:
Format in all cases: in vivo
Brachiaria eruciformis = test: Field efficacy on grass weed in soybean, post-emergence foliar application
Protocol: (§1) As described in the Herbicide Handbook of the Weed Science Society of America, Ninth Edition, 2007, p. 429, “synergism” [is] an interaction of two or more factors such that the effect when combined is greater than the predicted effect based on the response to each factor applied separately. In the Colby method, the expected (or predicted) response of a combination of herbicides is calculated by taking the product of the observed response for each individual component of the combination when applied alone divided by 100 and subtracting this value from the sum of the observed response for each component while applied alone. An unexpected enhancement in efficacy of the combination is then determined by comparing the observed response of the combination to the expected (or predicted) response as calculated from the observed response of each individual component alone. If the observed response of the combination is greater than the expected (or predicted) response, or stated conversely, if the difference between the observed and expected response is greater than zero, then the combination is said to be synergistic or unexpectedly effective. (Colby, S. R., Weeds, 1967(15), p. 20-22). The Colby method required only a single dose of each herbicide applied alone and the mixture of both doses.
(§2) Synergy Study: The following formula was used to calculate the expected activity of mixtures containing active ingredients, A and B:
(§3) • A=Observed efficacy of active ingredient (combination of Metamifop and Imidazolinone herbicides) A at the same concentration as used in the mixture. • B=observed efficacy of active ingredient B at the same concentration as used in the mixture. However, following formula was used to calculate the expected activity of mixtures containing three active ingredients, A, B and C:
(§4) • A=observed efficacy of active ingredient (combination of Metamifop and Imidazolinone herbicides) A at the same concentration as used in the mixture. • B=observed efficacy of active ingredient B at the same concentration as used in the mixture. • C=observed efficacy of active ingredient C at the same concentration as used in the mixture.
(§5) EFFICACY STUDY: The field experiments were carried out to test the synergy of the combination Metamifop, Imazethapyr, and Imazamox in India at various locations like in MP, Maharashtra, Karnataka, and Telangana on farmer's field against soybean weeds during Kharif season. The experiment comprising of 15 treatments including premixed binary and ternary combinations along with their stand-alone molecule using a randomized block design replicated thrice. All the treatments were applied as post-emergence foliar application when the weeds reached to two to four leaf stage. The spray was conducted with the help of Battery-operated Knapsack sprayer. The percentage efficacy was calculated after 14 and 21 days after application of herbicides.
(§6) The weeds present in the experimental fields were echinochloa conola, echinochloa crusgalli, brachiaria euriciformis, rottboellia cochinchinensis, cynodon dactylon, parthenium hyterophorus, digera arvensis, cynotis axillaris, acalypha indica, Commelina benghalensis, celosia argentia, cyperus spp.

Echinochloa crusgalli = test: as above
Protocol: as §1, §2, §3, §4, §5, §6

[1] = test system: Rottboellia cochinchinensis; test: as above
Protocol: as §1, §2, §3, §4, §5, §6

Commelina benghalensis = test: Field efficacy on broad leaf weed in soybean, post-emergence foliar application
Protocol: as §1, §2, §3, §4, §5, §6

Cyanotis axillaris = test: as above
Protocol: as §1, §2, §3, §4, §5, §6

Parthenium hysterophorus = test: as above
Protocol: as §1, §2, §3, §4, §5, §6

Soybean = test: Phytotoxicity in Soybean, visual grading on 0-10 scale; settings: Soybean
Protocol: as §5
Phytotoxic effect of herbicidal combination of Metamifop, Imazethapyr and Imazamox in soyabean: Table 5, 10 show the visual observations and grading on phytotoxicity which was recorded for leaf injury on tip/surface, Epinasty/Hyponasty, and wilting etc. on 0-10 scale (as below) at 1, 3, 7, 14 and 21 days after application of the present herbicidal composition.

[2] = test system: hard to kill broad leaf weeds; test: Field efficacy, summary on broad leaf weeds
Protocol: as §1, §5

Compound: C[C@@H](Oc1ccc(Oc2nc3ccc(Cl)cc3o2)cc1)C(=O)N(C)c1ccccc1F [Metamifop]
- % Weed control burn down symptoms generation Observed (Brachiaria eruciformis; 14 DAA, Metamifop 80 gm ai/ha): 84%
- % Weed control burn down symptoms generation Observed (Brachiaria eruciformis; 14 DAA, Metamifop 90 gm ai/ha): 88%
- % Weed control burn down symptoms generation Observed (Brachiaria eruciformis; 21 DAA, Metamifop 80 gm ai/ha): 78%
- % Weed control burn down symptoms generation Observed (Brachiaria eruciformis; 21 DAA, Metamifop 90 gm ai/ha): 81%
- % Weed control burn down symptoms generation Observed (Echinochloa crusgalli; 14 DAA, Metamifop 80 gm ai/ha): 80%
- % Weed control burn down symptoms generation Observed (Echinochloa crusgalli; 14 DAA, Metamifop 90 gm ai/ha): 83%
- % Weed control burn down symptoms generation Observed (Echinochloa crusgalli; 21 DAA, Metamifop 80 gm ai/ha): 74%
- % Weed control burn down symptoms generation Observed (Echinochloa crusgalli; 21 DAA, Metamifop 90 gm ai/ha): 77%
- % Weed control burn down symptoms generation Observed ([1]; 14 DAA, Metamifop 80 gm ai/ha): 67%
- % Weed control burn down symptoms generation Observed ([1]; 14 DAA, Metamifop 90 gm ai/ha): 70%
- % Weed control burn down symptoms generation Observed ([1]; 21 DAA, Metamifop 80 gm ai/ha): 70%
- % Weed control burn down symptoms generation Observed ([1]; 21 DAA, Metamifop 90 gm ai/ha): 72%
- % Weed control burn down symptoms generation Observed (Commelina benghalensis; 14 DAA, Metamifop 80 gm ai/ha): 0%
- % Weed control burn down symptoms generation Observed (Commelina benghalensis; 14 DAA, Metamifop 90 gm ai/ha): 0%
- % Weed control burn down symptoms generation Observed (Commelina benghalensis; 21 DAA, Metamifop 80 gm ai/ha): 0%
- % Weed control burn down symptoms generation Observed (Commelina benghalensis; 21 DAA, Metamifop 90 gm ai/ha): 0%
- % Weed control burn down symptoms generation Observed (Cyanotis axillaris; 14 DAA, Metamifop 80 gm ai/ha): 0%
- % Weed control burn down symptoms generation Observed (Cyanotis axillaris; 14 DAA, Metamifop 90 gm ai/ha): 0%
- % Weed control burn down symptoms generation Observed (Cyanotis axillaris; 21 DAA, Metamifop 80 gm ai/ha): 0%
- % Weed control burn down symptoms generation Observed (Cyanotis axillaris; 21 DAA, Metamifop 90 gm ai/ha): 0%
- % Weed control burn down symptoms generation Observed (Parthenium hysterophorus; 14 DAA, Metamifop 80 gm ai/ha): 0%
- % Weed control burn down symptoms generation Observed (Parthenium hysterophorus; 14 DAA, Metamifop 90 gm ai/ha): 0%
- % Weed control burn down symptoms generation Observed (Parthenium hysterophorus; 21 DAA, Metamifop 80 gm ai/ha): 0%
- % Weed control burn down symptoms generation Observed (Parthenium hysterophorus; 21 DAA, Metamifop 90 gm ai/ha): 0%
- Phytotoxicity score (Soybean; 1 DAA, Metamifop 80 gm ai/ha): 0
- Phytotoxicity score (Soybean; 1 DAA, Metamifop 90 gm ai/ha): 0
- Phytotoxicity score (Soybean; 3 DAA, Metamifop 80 gm ai/ha): 0
- Phytotoxicity score (Soybean; 3 DAA, Metamifop 90 gm ai/ha): 0
- Phytotoxicity score (Soybean; 7 DAA, Metamifop 80 gm ai/ha): 0
- Phytotoxicity score (Soybean; 7 DAA, Metamifop 90 gm ai/ha): 0
- Phytotoxicity score (Soybean; 14 DAA, Metamifop 80 gm ai/ha): 0
- Phytotoxicity score (Soybean; 14 DAA, Metamifop 90 gm ai/ha): 0
- Phytotoxicity score (Soybean; 21 DAA, Metamifop 80 gm ai/ha): 0
- Phytotoxicity score (Soybean; 21 DAA, Metamifop 90 gm ai/ha): 0
- Control on targeted weeds, applied alone ([2]; at 14 days): no or very less control
- Control on targeted weeds, applied alone ([2]; at 21 days): no or very less control
